Reference: US20210378993A1 (Nacuity Pharmaceuticals, Inc., priority 2020, published 2021)
“And” between values parts separate entries of the source, which are not always exact repeats. Equal values may be shown once.

Assays:
rabbit eyes = assay: Ophthalmic tolerability, daily Draize scores after topical ocular administration; type: in vivo; settings: rabbits
Method: To simulate topical ocular exposure to an ophthalmic insert containing AGENT, prototype ophthalmic formulations were prepared containing either 1% NPI-001, 1% diNACA, 1% NAC or vehicle and tested to evaluate ocular tolerability. Three rabbits per group were administered 1% NPI-001, 1% di-NAC, 1% NAC in a prototype vehicle, via bilateral topical administration four times a day for 6 days, and once on Day 7.

[1] = humans, oral dose of 600 mg; cited from earlier work
[2] = 1% in prototype vehicle, bilateral topical four times a day, Day 1, per animal and eye
[3] = 1% in prototype vehicle, bilateral topical four times a day, Day 2, per animal and eye
[4] = 1% in prototype vehicle, bilateral topical four times a day, Day 3, per animal and eye
[5] = 1% in prototype vehicle, bilateral topical four times a day, Day 4, per animal and eye
[6] = 1% in prototype vehicle, bilateral topical four times a day, Day 5, per animal and eye
[7] = 1% in prototype vehicle, bilateral topical four times a day, Day 6, per animal and eye
[8] = 1% in prototype vehicle, bilateral topical, once on Day 7, Day 7, per animal and eye
[9] = 1% in prototype vehicle, bilateral topical, (baseline), per animal and eye

In the case of `CC(=O)NC(CS)C(=O)O` (centres unmarked) [NAC, N-acetylcysteine, reference compound], the “Daily Draize Scores for Chemosis, Day 1” value (rabbit eyes; [2]) is reported as 0, the “Daily Draize Scores for Discharge, Day 1” value (rabbit eyes; [2]) is reported as 0 and the “Daily Draize Scores for Hyperemia, Day 1” value (rabbit eyes; [2]) is reported as 0. For the same molecule, the “Daily Draize Scores for Chemosis, Day 2” value (rabbit eyes; [3]) was 0, the “Daily Draize Scores for Discharge, Day 2” value (rabbit eyes; [3]) was 0 (4×) and 0.5 (2×) and the “Daily Draize Scores for Hyperemia, Day 2” value (rabbit eyes; [3]) was 0 (4×) and 0.5 (2×). The “Daily Draize Scores for Chemosis, Day 3” value (rabbit eyes; [4]) was 0, the “Daily Draize Scores for Discharge, Day 3” value (rabbit eyes; [4]) was 0 and the “Daily Draize Scores for Hyperemia, Day 3” value (rabbit eyes; [4]) was 0 (3×) and 0.5 (3×). For the same molecule, the “Daily Draize Scores for Chemosis, Day 4” value (rabbit eyes; [5]) was 0, the “Daily Draize Scores for Discharge, Day 4” value (rabbit eyes; [5]) was 0 (4×) and 1 and 0.5 and the “Daily Draize Scores for Hyperemia, Day 4” value (rabbit eyes; [5]) was 0. The “Daily Draize Scores for Chemosis, Day 5” value (rabbit eyes; [6]) was 0, the “Daily Draize Scores for Discharge, Day 5” value (rabbit eyes; [6]) was 0.5 and 0 (5×) and the “Daily Draize Scores for Hyperemia, Day 5” value (rabbit eyes; [6]) was 0. The “Daily Draize Scores for Chemosis, Day 6” value (rabbit eyes; [7]) was 0, the “Daily Draize Scores for Discharge, Day 6” value (rabbit eyes; [7]) was 0 (3×) and 1 (3×) and the “Daily Draize Scores for Hyperemia, Day 6” value (rabbit eyes; [7]) was 0. The “Daily Draize Scores for Chemosis, Day 7” value (rabbit eyes; [8]) was 0, the “Daily Draize Scores for Discharge, Day 7” value (rabbit eyes; [8]) was 0.5 (4×) and 1 and 0 and the “Daily Draize Scores for Hyperemia, Day 7” value (rabbit eyes; [8]) was 1 (3×) and 0.5 (3×). For the same molecule, the “Daily Draize Scores for Chemosis, Day B” value (rabbit eyes; [9]) was 0, the “Daily Draize Scores for Discharge, Day B” value (rabbit eyes; [9]) was 0 and the “Daily Draize Scores for Hyperemia, Day B” value (rabbit eyes; [9]) was 0. The “ocular hyperemia, observation over the study” value (rabbit eyes; 1%, four times a day for 6 days, once on Day 7) was “mild hyperemia was observed at low frequencies” and the “time after administration at which no NAC is detectable” value [1] was 10 to 12 h.
